Measured values published in patent publication US10196386B2, “Compounds having muscarinic receptor antagonist and beta2 adrenergic receptor agonist activity” (priority 2016, dated 2019).

Tests used:
[1] = molecular target: T1, Human β2 adrenoceptor (Homo sapiens, UniProt P07550); test: β2 adrenoceptor radioligand binding assay
T1 construct: purchased Perkin Elmer
Procedure: β2 Adrenoceptor Radioligand Binding Assay
Human β2 adrenoceptor membranes (7.5 ug/well) from Perkin Elmer were incubated with 0.3 nM 125-I Cyanopindolol with or without test compounds, or a saturating concentration of s-propranolol (2 μM) for the determination of non-specific binding. The assay was carried out in 96-well polypropylene plates in a volume of 200 ul. The assay buffer used was 25 mM HEPES, 0.5% BSA (w/v), 1 mM EDTA, 0.02% ascorbic acid (v/v), (pH 7.4). The final assay concentration of DMSO was 0.5% (v/v). The plates were sealed and incubated for 1 h at room temperature on an orbital shaker (slow speed). Membranes were harvested onto 96-well unifilter GF/C filter plates pre-treated with 0.5% polyethyleneimine (v/v), using a filter manifold, washed six times with 200 ul of wash buffer containing 10 mM HEPES and 500 mM NaCl. The plates were dried before addition of 50 μl of microscint-0, sealed then read in a Trilux Microbeta scintillation counter. IC50 values are determined from competition curves using a non-linear curve fitting program. Ki values were calculated from IC50 values by the Cheng and Prusoff equation.

[2] = molecular target: T2, Human M3 receptor (Homo sapiens, UniProt P20309); test: biochemical; assay type: binding; conditions: read-out: M3 Range
T2 construct: purchased Perkin Elmer
T2 sequence (P20309 whole entry): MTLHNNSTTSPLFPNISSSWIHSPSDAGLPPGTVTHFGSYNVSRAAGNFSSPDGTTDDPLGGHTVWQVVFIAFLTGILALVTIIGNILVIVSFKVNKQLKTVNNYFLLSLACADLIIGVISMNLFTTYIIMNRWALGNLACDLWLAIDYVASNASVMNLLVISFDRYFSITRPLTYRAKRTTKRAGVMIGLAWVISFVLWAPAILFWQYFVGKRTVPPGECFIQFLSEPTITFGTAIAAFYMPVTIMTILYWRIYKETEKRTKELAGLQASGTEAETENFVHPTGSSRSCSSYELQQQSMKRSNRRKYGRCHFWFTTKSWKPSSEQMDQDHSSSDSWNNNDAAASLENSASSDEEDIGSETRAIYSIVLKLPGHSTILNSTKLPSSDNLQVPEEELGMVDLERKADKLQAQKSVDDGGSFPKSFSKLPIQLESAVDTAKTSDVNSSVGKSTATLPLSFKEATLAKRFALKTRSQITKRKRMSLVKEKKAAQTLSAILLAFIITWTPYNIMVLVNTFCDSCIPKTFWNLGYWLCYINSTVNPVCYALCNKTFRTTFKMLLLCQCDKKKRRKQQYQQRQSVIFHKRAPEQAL

T1 sequence (P07550 whole entry): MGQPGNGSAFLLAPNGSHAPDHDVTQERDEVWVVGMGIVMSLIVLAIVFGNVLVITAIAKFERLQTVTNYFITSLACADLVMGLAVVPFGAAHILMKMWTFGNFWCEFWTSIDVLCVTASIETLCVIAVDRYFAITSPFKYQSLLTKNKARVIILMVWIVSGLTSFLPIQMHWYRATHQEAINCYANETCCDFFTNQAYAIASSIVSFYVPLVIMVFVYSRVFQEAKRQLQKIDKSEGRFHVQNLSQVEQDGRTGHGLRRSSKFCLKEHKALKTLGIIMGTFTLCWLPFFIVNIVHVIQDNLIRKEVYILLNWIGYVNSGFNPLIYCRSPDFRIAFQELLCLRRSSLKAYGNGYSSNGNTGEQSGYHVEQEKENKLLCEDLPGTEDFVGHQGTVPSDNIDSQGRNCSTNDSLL

SMILES	IC50 [1] [nM]	IC50 [2] [nM]
COc1cc(C(=O)NCc2ccc(-c3cccc([C@](O)(C(=O)OCC4CCN(Cc5ccccc5)CC4)c4ccccc4)c3)s2)c(Cl)cc1CNC[C@H](O)c1ccc(O)c2[nH]c(=O)ccc12 [Compound 1D, (1-Benzylpiperidin-4-yl)methyl (S)-2-(3-(5-((2-chloro-4-((((R)-2-hydroxy-2-(8-hydroxy-2-oxo-1,2-dihydroquinolin-5-yl)ethyl)amino)methyl)-5-methoxybenzamido)methyl)thiophen-2-yl)phenyl)-2-hydroxy-2-phenylacetate]	< 0.3	0.3 to 3
COc1cc(C(=O)NCc2ccc(-c3cccc([C@](O)(C(=O)OCC4CCN(Cc5ccccc5)CC4)c4ccccc4)c3)s2)c(F)cc1CNC[C@H](O)c1ccc(O)c2[nH]c(=O)ccc12 [Compound 1E, (1-Benzylpiperidin-4-yl)methyl (S)-2-(3-(5-((2-fluoro-4-((((R)-2-hydroxy-2-(8-hydroxy-2-oxo-1,2-dihydroquinolin-5-yl)ethyl)amino)methyl)-5-methoxybenzamido)methyl)thiophen-2-yl)phenyl)-2-hydroxy-2-phenylacetate]	< 0.3	0.3 to 3
O=C(NCc1ccc(-c2cccc([C@](O)(C(=O)OCC3CCN(Cc4ccccc4)CC3)c3ccccc3)c2)s1)c1ccc(CNC[C@H](O)c2ccc(O)c3[nH]c(=O)ccc23)c(C(F)(F)F)c1 [Compound 1F, (1-Benzylpiperidin-4-yl)methyl (S)-2-hydroxy-2-(3-(5-((4-((((R)-2-hydroxy-2-(8-hydroxy-2-oxo-1,2-dihydroquinolin-5-yl)ethyl)amino)methyl)-3-(trifluoromethyl)benzamido)methyl)thiophen-2-yl)phenyl)-2-phenylacetate]	0.3 to 3	> 3
O=C(NCc1ccc(-c2cccc([C@](O)(C(=O)OCC3CCN(Cc4ccccc4)CC3)c3ccccc3)c2)s1)c1ccc(CNC[C@H](O)c2ccc(O)c3[nH]c(=O)ccc23)cc1F [Compound 1G, (1-Benzylpiperidin-4-yl)methyl (S)-2-(3-(5-((2-fluoro-4-((((R)-2-hydroxy-2-(8-hydroxy-2-oxo-1,2-dihydroquinolin-5-yl)ethyl)amino)methyl)-benzamido)methyl)thiophen-2-yl)phenyl)-2-hydroxy-2-phenylacetate]	< 0.3	0.3 to 3
O=C(NCc1ccc(-c2cccc([C@](O)(C(=O)OCC3CCN(Cc4ccccc4)CC3)c3ccccc3)c2)s1)c1ccc(CCNC[C@H](O)c2ccc(O)c3[nH]c(=O)ccc23)cc1 [Compound 1H, (1-Benzylpiperidin-4-yl)methyl (S)-2-hydroxy-2-(3-(5-((4-(2-(((R)-2-hydroxy-2-(8-hydroxy-2-oxo-1,2-dihydroquinolin-5-yl)ethyl)amino)ethyl)-benzamido)methyl)thiophen-2-yl)phenyl)-2-phenylacetate]	0.3 to 3	0.3 to 3
CCOc1cc(C(=O)NCc2ccc(-c3cccc([C@](O)(C(=O)OCC4CCN(Cc5ccccc5)CC4)c4ccccc4)c3)s2)ccc1CNC[C@H](O)c1ccc(O)c2[nH]c(=O)ccc12 [Compound 1I, (1-Benzylpiperidin-4-yl)methyl (S)-2-(3-(5-((3-ethoxy-4-((((R)-2-hydroxy-2-(8-hydroxy-2-oxo-1,2-dihydroquinolin-5-yl)ethyl)amino)methyl)-benzamido)methyl)thiophen-2-yl)phenyl)-2-hydroxy-2-phenylacetate]	0.3 to 3	0.3 to 3
O=C(NCc1ccc(-c2cccc([C@](O)(C(=O)OCC3CCN(Cc4ccccc4)CC3)c3ccccc3)c2)s1)c1ccc(CNC[C@H](O)c2ccc(O)c3[nH]c(=O)ccc23)c(F)c1 [Compound 1J, (1-Benzylpiperidin-4-yl)methyl (S)-2-(3-(5-((3-fluoro-4-((((R)-2-hydroxy-2-(8-hydroxy-2-oxo-1,2-dihydroquinolin-5-yl)ethyl)amino)methyl)-benzamido)methyl)thiophen-2-yl)phenyl)-2-hydroxy-2-phenylacetate]	< 0.3	0.3 to 3
COc1c(CNC[C@H](O)c2ccc(O)c3[nH]c(=O)ccc23)ccc(C(=O)NCc2ccc(-c3cccc([C@](O)(C(=O)OCC4CCN(Cc5ccccc5)CC4)c4ccccc4)c3)s2)c1F [Compound 1K, (1-Benzylpiperidin-4-yl)methyl (S)-2-(3-(5-((2-fluoro-4-((((R)-2-hydroxy-2-(8-hydroxy-2-oxo-1,2-dihydroquinolin-5-yl)ethyl)amino)methyl)-3-methoxybenzamido)methyl)thiophen-2-yl)phenyl)-2-hydroxy-2-phenylacetate]	< 0.3	0.3 to 3
O=C(NCc1ccc(-c2cccc([C@](O)(C(=O)OCC3CCN(Cc4ccccc4)CC3)c3ccccc3)c2)s1)c1ccc(CNC[C@H](O)c2ccc(O)c3[nH]c(=O)ccc23)nc1 [Compound 1L, (1-Benzylpiperidin-4-yl)methyl (S)-2-hydroxy-2-(3-(5-((6-((((R)-2-hydroxy-2-(8-hydroxy-2-oxo-1,2-dihydroquinolin-5-yl)ethyl)amino)methyl)-nicotinamido)methyl)thiophen-2-yl)phenyl)-2-phenylacetate]	< 0.3	0.3 to 3
COc1cc(C(=O)NCc2ccc(-c3cccc([C@](O)(C(=O)OCC4CCN(Cc5ccccc5)CC4)c4ccccc4)c3)s2)cc(F)c1CNC[C@H](O)c1ccc(O)c2[nH]c(=O)ccc12 [Compound 1M, (1-Benzylpiperidin-4-yl)methyl (S)-2-(3-(5-((3-fluoro-4-((((R)-2-hydroxy-2-(8-hydroxy-2-oxo-1,2-dihydroquinolin-5-yl)ethyl)amino)methyl)-5-methoxybenzamido)methyl)thiophen-2-yl)phenyl)-2-hydroxy-2-phenylacetate]	0.3 to 3	0.3 to 3
O=C(NCc1ccc(-c2cccc([C@](O)(C(=O)OCC3CCN(Cc4ccccc4)CC3)c3ccccc3)c2)s1)c1cccc(CNC[C@H](O)c2ccc(O)c3[nH]c(=O)ccc23)c1 [Compound 1N, (1-Benzylpiperidin-4-yl)methyl (S)-2-hydroxy-2-(3-(5-((3-((((R)-2-hydroxy-2-(8-hydroxy-2-oxo-1,2-dihydroquinolin-5-yl)ethyl)amino)methyl)-benzamido)methyl)thiophen-2-yl)phenyl)-2-phenylacetate]	0.3 to 3	0.3 to 3
Cc1cc(C(=O)NCc2ccc(-c3cccc([C@](O)(C(=O)OCC4CCN(Cc5ccccc5)CC4)c4ccccc4)c3)s2)c(F)cc1CNC[C@H](O)c1ccc(O)c2[nH]c(=O)ccc12 [Compound 1O, (1-Benzylpiperidin-4-yl)methyl (S)-2-(3-(5-((2-fluoro-4-((((R)-2-hydroxy-2-(8-hydroxy-2-oxo-1,2-dihydroquinolin-5-yl)ethyl)amino)methyl)-5-methylbenzamido)methyl)thiophen-2-yl)phenyl)-2-hydroxy-2-phenylacetate]	< 0.3	> 3
O=C(Cc1ccc(CNC[C@H](O)c2ccc(O)c3[nH]c(=O)ccc23)cc1)NCc1ccc(-c2cccc([C@](O)(C(=O)OCC3CCN(Cc4ccccc4)CC3)c3ccccc3)c2)s1 [Compound 1P, (1-Benzylpiperidin-4-yl)methyl (S)-2-hydroxy-2-(3-(5-((2-(4-((((R)-2-hydroxy-2-(8-hydroxy-2-oxo-1,2-dihydroquinolin-5-yl)ethyl)amino)methyl)-phenyl)acetamido)methyl)thiophen-2-yl)phenyl)-2-phenylacetate]	0.3 to 3	0.3 to 3
O=C(NCc1ccc(-c2cccc([C@](O)(C(=O)OCC3CCN(Cc4ccccc4)CC3)c3ccccc3)c2)s1)c1ccc(CNC[C@H](O)c2ccc(O)c3[nH]c(=O)ccc23)cn1 [Compound 1Q, (1-Benzylpiperidin-4-yl)methyl (S)-2-hydroxy-2-(3-(5-((5-((((R)-2-hydroxy-2-(8-hydroxy-2-oxo-1,2-dihydroquinolin-5-yl)ethyl)amino)methyl)-picolinamido)methyl)thiophen-2-yl)phenyl)-2-phenylacetate]	< 0.3	0.3 to 3
O=C(NCc1ccc(-c2cccc([C@](O)(C(=O)OCC3CCN(Cc4ccccc4)CC3)c3ccccc3)c2)s1)c1ccc(CNC[C@H](O)c2ccc(O)c3[nH]c(=O)ccc23)c(Cl)c1 [Compound 1R, (1-Benzylpiperidin-4-yl)methyl (S)-2-(3-(5-((3-chloro-4-((((R)-2-hydroxy-2-(8-hydroxy-2-oxo-1,2-dihydroquinolin-5-yl)ethyl)amino)methyl)-benzamido)methyl)thiophen-2-yl)phenyl)-2-hydroxy-2-phenylacetate]	< 0.3	> 3
Cc1cc(C(=O)NCc2ccc(-c3cccc([C@](O)(C(=O)OCC4CCN(Cc5ccccc5)CC4)c4ccccc4)c3)s2)ccc1CNC[C@H](O)c1ccc(O)c2[nH]c(=O)ccc12 [Compound 1S, (1-Benzylpiperidin-4-yl)methyl (S)-2-hydroxy-2-(3-(5-((4-((((R)-2-hydroxy-2-(8-hydroxy-2-oxo-1,2-dihydroquinolin-5-yl)ethyl)amino)methyl)-3-methylbenzamido)methyl)thiophen-2-yl)phenyl)-2-phenylacetate]	< 0.3	0.3 to 3
O=C(NCc1ccc(-c2cccc([C@](O)(C(=O)OCC3CCN(Cc4ccccc4)CC3)c3ccccc3)c2)s1)c1ccc(CNC[C@H](O)c2ccc(O)c3[nH]c(=O)ccc23)s1 [Compound 1T, (1-Benzylpiperidin-4-yl)methyl (S)-2-hydroxy-2-(3-(5-((5-((((R)-2-hydroxy-2-(8-hydroxy-2-oxo-1,2-dihydroquinolin-5-yl)ethyl)amino)methyl)thiophene-2-carboxamido)methyl)thiophen-2-yl)phenyl)-2-phenylacetate]	0.3 to 3	0.3 to 3
